Data on seven molecules can be found in patent US20230286973A1, “PROTEIN SECRETION INHIBITORS” (KEZAR LIFE SCIENCES, priority 2020, published 2023).

The EC50 is the concentration needed to bring the measured effect to its halfway point.

The subject of data set [1] is HER3-ss+4aa/Gaussia Luciferase. Nature of the data set: Dox-Induced Her3-ss-Gluc Assay. It counts as cell-based. Conditions: 24 hr Dox induction; 293FRT/TO cells; read-out: 24 hr Dox Inducible Her3(ss + 4)Gluc 293FRT/TO: Mean IC50. The method, boiled down:
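Stable Flp-In 293 T-REx line expressing Gaussia luciferase fused to the HER3 signal sequence plus 4 amino acids under tetracycline-regulated (T-REx) control. Cells plated the day before, then treated with compound dilutions in DMSO/media containing doxycycline and incubated at 37° C., 5% CO2.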

Data set [2] concerns IL-2-FL/Gaussia Luciferase. Kind of data set: Dox Induced IL2-FL-Gluc Assay. It counts as cell-based. The settings on record: for IC50: 24 hr Dox induction, 293FRT/TO cells, read-out: 24 hr Dox Inducible IL2FLGluc 293FRT/TO: Mean IC50; for 24 hr Dox Inducible IL2FLGluc 293FRT/TO: IL2/PD1: ratio of IL2FLGluc IC50 to PD1ssGluc IC50. The procedure, abridged:
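Flp-In 293 T-REx cells stably carrying doxycycline-inducible full-length IL-2 (aa 1-153) fused at its C-terminus to Gaussia luciferase, selected with hygromycin and blasticidin. Cells were plated the day before, then treated with compounds in DMSO/media containing doxycycline at 37° C, 5% CO2.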

In data set [3] the test system is multiple myeloma cell line U266B1. Nature of the data set: U266 Cell Viability Assay. It counts as cell-based, human. The settings on record: Homo sapiens, U-266, 48 h, U266B1 cells, Celltiter-Glo. The procedure, abridged: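 Cells grown in RPMI 1640 with 10% FBS, 2 mM glutamine and penicillin/streptomycin were exposed to compound dilutions in DMSO/media for 48 hours at 37° C., 5% CO2. Viability was read by CellTiter-Glo luminescence. Undefined stereocentres mean data for stereoisomer mixtures.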
For orientation: In ATP-based viability assays light output follows the ATP content of the culture.

A short description of data set [4]: Liver Microsome Stability Assay (monkey). Conditions: monkey liver microsomes, with NADPH, 1.0 uM compound.
Protocol: (§1) Stability of a compound was assessed in the presence of liver microsomes from various sources—mouse, rat, monkey and human liver microsomes. 1.0 uM compound, 0.4% DMSO in 0.1 M Potassium Phosphate with 1.0 mg/mL liver microsomes, were incubated at 37° C. with or without 1 mM NADPH. The samples were quenched at 0, and 30 minutes.
Data set [5] concerns PD1-ss+10aa/Gaussia Luciferase. Kind of data set: Dox-Induced PD1-ss-Gluc Assay. The class given is cell-based. The settings on record: 24 hr Dox induction; 293FRT/TO cells; read-out: 24 hr Dox Inducible PD1ssGluc 293FRT/TO: Mean IC50. The procedure, abridged:
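The cell line was made by transfecting Flp-In 293 T-REx cells with a PD1 signal sequence+10aa–Gaussia luciferase fusion under T-REx control and selecting with hygromycin and blasticidin. Cells were seeded, and next day compound plus doxycycline was added at 37 °C, 5% CO2.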

Data set [6] is described as follows: Liver Microsome Stability Assay (rat). Conditions: rat liver microsomes, with NADPH, 1.0 uM compound. In general terms: Microsomes from liver hold many membrane-bound enzymes, among them those of drug oxidation.
Protocol: as §1
Data set [7] can be described thus: Liver Microsome Stability Assay (mouse). The settings on record: mouse liver microsomes, with NADPH, 1.0 uM compound.
Protocol: as §1
Data set [8] can be described thus: Liver Microsome Stability Assay (human). The settings on record: human liver microsomes, with NADPH, 1.0 uM compound.
Protocol: as §1
Data set [9] relates to multiple myeloma cell line NCI-H929. Kind of data set: H929 Cell Viability Assay. The settings on record: Homo sapiens, NCI-H929, 48 h, NCI-H929 cells, Celltiter-Glo. It counts as cell-based, human. The method, boiled down:
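NCI-H929 cells, resuspended in RPMI 1640 with 10% FBS and 2 mM glutamine, were treated with compound dilutions in DMSO/media and incubated 48 hours at 37° C, 5% CO2. Viability was read by CellTiter-Glo luminescence. Compounds drawn without stereochemistry were tested as stereoisomer mixtures.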

The test system of data set [10] is TNFα-FL/Gaussia Luciferase. Kind of data set: Dox Induced TNFα-FL-Gluc Assay. It counts as cell-based. Conditions: for IC50: 24 hr Dox induction, 293FRT/TO cells, read-out: 24 hr Dox Inducible TNFaFLGluc 293FRT/TO: Mean IC50; for 24 hr Dox Inducible TNFaFLGluc 293FRT/TO: TNF/PD1: ratio of TNFaFLGluc IC50 to PD1ssGluc IC50. The procedure, abridged: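 Flp-In 293 T-REx cells stably expressing full-length TNFα (aa 1-233) fused at its C-terminus to Gaussia luciferase under tetracycline-regulated control were plated the day before assay. Compound dilutions in DMSO/media containing doxycycline were added and incubated at 37 °C, 5% CO2. Unspecified stereochemistry denotes stereoisomer mixtures.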

Consider `CC(=O)NCCOc1ccc(N2CCC[C@@H]2c2csc(NC(=O)c3cccn3Cc3ccnc(F)c3)n2)cc1` [Compound A121, (R)-N-(4-(1-(4-(2-acetamidoethoxy)phenyl)pyrrolidin-2-yl)thiazol-2-yl)-1-((2-fluoropyridin-4-yl)methyl)-1H-pyrrole-2-carboxamide], for which the IC50 in data set [1] worked out at 0.0175 µM; in data set [2] it was 0.0207 µM; in data set [5] it was 0.0109 µM; in data set [10] it was 0.18 µM. Further, in data set [2], the “24 hr Dox Inducible IL2FLGluc 293FRT/TO: IL2/PD1” value amounted to 1.9. The EC50 was greater than 25 µM in data set [3] and 0.447 µM in data set [9]. The “Liver Microsome Stability (Multiple Species): Monkey - % Remaining after 30 min w/NADPH” value in [4] is recorded as 1.57%. In [6], the “Liver Microsome Stability (Multiple Species): Rat - % Remaining after 30 min w/NADPH” value turned out to be 9.82%. In addition, the “Liver Microsome Stability (Multiple Species): Mouse - % Remaining after 30 min w/NADPH” value in [7] was determined as 7.09%. Besides, the “Liver Microsome Stability (Multiple Species): Human - % Remaining after 30 min w/NADPH” value in [8] turned out to be 8.26%. Further, the “24 hr Dox Inducible TNFaFLGluc 293FRT/TO: TNF/PD1” value in data set [10] came to 16.5.
With `CC(=O)Nc1ccc(N2CCC[C@@H]2c2csc(NC(=O)c3cccn3Cc3cc(F)nc(F)c3)n2)cc1` [Compound A122, (R)-N-(4-(1-(4-acetamidophenyl)pyrrolidin-2-yl)thiazol-2-yl)-1-((2,6-difluoropyridin-4-yl)methyl)-1H-pyrrole-2-carboxamide], the IC50 in [1] is 0.0174 µM; in data set [2], 0.016 µM; in data set [5], 0.00788 µM; in data set [10], 0.191 µM. For the same molecule, the “24 hr Dox Inducible IL2FLGluc 293FRT/TO: IL2/PD1” value in [2] worked out at 2. The EC50 in data set [3] came to 8.02 µM; in [9], 0.354 µM. For the same molecule, the “Liver Microsome Stability (Multiple Species): Monkey - % Remaining after 30 min w/NADPH” value in data set [4] worked out at 27.3%. Moreover, the “Liver Microsome Stability (Multiple Species): Rat - % Remaining after 30 min w/NADPH” value in [6] is 18.8%. Further, the “Liver Microsome Stability (Multiple Species): Mouse - % Remaining after 30 min w/NADPH” value in data set [7] worked out at 17.1%. Also, in [8], the “Liver Microsome Stability (Multiple Species): Human - % Remaining after 30 min w/NADPH” value was 35.8%. Further, the “24 hr Dox Inducible TNFaFLGluc 293FRT/TO: TNF/PD1” value in data set [10] was 24.2.
As for `NC(=O)Nc1ccc(N2CCC[C@@H]2c2csc(NC(=O)c3cccn3Cc3ccnc(F)c3)n2)cc1` [Compound A123, (R)-1-((2-fluoropyridin-4-yl)methyl)-N-(4-(1-(4-ureidophenyl)pyrrolidin-2-yl)thiazol-2-yl)-1H-pyrrole-2-carboxamide], the IC50 in data set [1] came to 0.0181 µM; in data set [2], 0.0243 µM; in [5], 0.00821 µM; in [10], 0.143 µM. Besides, the “24 hr Dox Inducible IL2FLGluc 293FRT/TO: IL2/PD1” value in data set [2] came to 3. For the same molecule, the EC50 in data set [3] was greater than 25 µM; in data set [9], 0.289 µM. Also, the “Liver Microsome Stability (Multiple Species): Monkey - % Remaining after 30 min w/NADPH” value in data set [4] turned out to be 31.6%. Further, the “Liver Microsome Stability (Multiple Species): Rat - % Remaining after 30 min w/NADPH” value in [6] turned out to be 44.7%. The “Liver Microsome Stability (Multiple Species): Mouse - % Remaining after 30 min w/NADPH” value in data set [7] amounted to 23.3%. Besides, in data set [8], the “Liver Microsome Stability (Multiple Species): Human - % Remaining after 30 min w/NADPH” value was 49.3%. In [10], the “24 hr Dox Inducible TNFaFLGluc 293FRT/TO: TNF/PD1” value was determined as 17.4.
For the molecule `CN(C)C(=O)Nc1ccc(N2CCC[C@@H]2c2csc(NC(=O)c3cccn3Cc3ccnc(F)c3)n2)cc1` [Compound A124, (R)-N-(4-(1-(4-(3,3-dimethylureido)phenyl)pyrrolidin-2-yl)thiazol-2-yl)-1-((2-fluoropyridin-4-yl)methyl)-1H-pyrrole-2-carboxamide], the IC50 in [1] came out at 0.00915 µM; in data set [2] it was 0.0104 µM; in data set [5], 0.00487 µM; in [10] it was 0.0758 µM. In addition, the “24 hr Dox Inducible IL2FLGluc 293FRT/TO: IL2/PD1” value in data set [2] stood at 2.1. In addition, the EC50 in data set [3] was greater than 25 µM; in data set [9], 0.166 µM. Moreover, in data set [4], the “Liver Microsome Stability (Multiple Species): Monkey - % Remaining after 30 min w/NADPH” value stood at 27.8%. In addition, the “Liver Microsome Stability (Multiple Species): Rat - % Remaining after 30 min w/NADPH” value in data set [6] amounted to 37.6%. The “Liver Microsome Stability (Multiple Species): Mouse - % Remaining after 30 min w/NADPH” value in data set [7] was 31.2%. For the same molecule, in [8], the “Liver Microsome Stability (Multiple Species): Human - % Remaining after 30 min w/NADPH” value was found to be 53.1%. For the same molecule, in data set [10], the “24 hr Dox Inducible TNFaFLGluc 293FRT/TO: TNF/PD1” value stood at 15.6.
Consider `CNC(=O)N1CC(Oc2ccc(N3CCC[C@@H]3c3csc(NC(=O)c4cccn4Cc4ccnc(F)c4)n3)cc2)C1` [Compound A125, (R)-1-((2-fluoropyridin-4-yl)methyl)-N-(4-(1-(4-((1-(methylcarbamoyl)azetidin-3-yl)oxy)phenyl)pyrrolidin-2-yl)thiazol-2-yl)-1H-pyrrole-2-carboxamide], for which the IC50 in data set [1] is 0.0286 µM; in data set [2], 0.065 µM; in [5], 0.0225 µM; in [10], 0.322 µM. Further, in data set [2], the “24 hr Dox Inducible IL2FLGluc 293FRT/TO: IL2/PD1” value amounted to 2.9. Besides, the EC50 in [3] was greater than 25 µM; in data set [9], 1.21 µM. For the same molecule, in data set [4], the “Liver Microsome Stability (Multiple Species): Monkey - % Remaining after 30 min w/NADPH” value was found to be 10.1%. In data set [6], the “Liver Microsome Stability (Multiple Species): Rat - % Remaining after 30 min w/NADPH” value was found to be 24.9%. Also, the “Liver Microsome Stability (Multiple Species): Mouse - % Remaining after 30 min w/NADPH” value in [7] worked out at 45.1%. The “Liver Microsome Stability (Multiple Species): Human - % Remaining after 30 min w/NADPH” value in data set [8] is reported as 26.2%. In addition, in data set [10], the “24 hr Dox Inducible TNFaFLGluc 293FRT/TO: TNF/PD1” value is recorded as 14.3.
For `CC(=O)N1CCC(Oc2ccc(N3CCC[C@@H]3c3csc(NC(=O)c4cccn4Cc4ccnc(F)c4)n3)cc2C#N)CC1` [Compound A126, (R)-N-(4-(1-(4-((1-acetylpiperidin-4-yl)oxy)-3-cyanophenyl)pyrrolidin-2-yl)thiazol-2-yl)-1-((2-fluoropyridin-4-yl)methyl)-1H-pyrrole-2-carboxamide], the IC50 in data set [1] worked out at 0.00503 µM; in data set [2] it was 0.0725 µM; in data set [5], 0.0595 µM; in data set [10], 0.414 µM. The “24 hr Dox Inducible IL2FLGluc 293FRT/TO: IL2/PD1” value in data set [2] is given as 1.2. Further, the EC50 in data set [3] is greater than 25 µM; in data set [9] it was 1.13 µM. Moreover, the “Liver Microsome Stability (Multiple Species): Monkey - % Remaining after 30 min w/NADPH” value in data set [4] was 0.92%. For the same molecule, the “Liver Microsome Stability (Multiple Species): Rat - % Remaining after 30 min w/NADPH” value in [6] worked out at 0.78%. Also, in data set [7], the “Liver Microsome Stability (Multiple Species): Mouse - % Remaining after 30 min w/NADPH” value stood at 17.7%. Further, the “Liver Microsome Stability (Multiple Species): Human - % Remaining after 30 min w/NADPH” value in [8] worked out at 1.21%. Moreover, the “24 hr Dox Inducible TNFaFLGluc 293FRT/TO: TNF/PD1” value in [10] worked out at 6.97.
In the case of `COCCOc1ccc(N2CCC[C@@H]2c2csc(NC(=O)c3cccn3Cc3ccnc(F)c3)n2)cc1` [Compound A127, (R)-1-((2-fluoropyridin-4-yl)methyl)-N-(4-(1-(4-(2-methoxyethoxy)phenyl)pyrrolidin-2-yl)thiazol-2-yl)-1H-pyrrole-2-carboxamide], the IC50 turned out to be 0.0108 µM in [1], 0.0101 µM in data set [2], 0.00565 µM in data set [5] and 0.107 µM in data set [10]. Besides, the “24 hr Dox Inducible IL2FLGluc 293FRT/TO: IL2/PD1” value in data set [2] came to 1.8. The concentration for a half-maximal effect (EC50) is greater than 25 µM in data set [3] and 0.278 µM in [9]. Moreover, the “Liver Microsome Stability (Multiple Species): Monkey - % Remaining after 30 min w/NADPH” value in data set [4] was determined as 24.4%. The “Liver Microsome Stability (Multiple Species): Rat - % Remaining after 30 min w/NADPH” value in data set [6] was 0.26%. Moreover, the “Liver Microsome Stability (Multiple Species): Mouse - % Remaining after 30 min w/NADPH” value in [7] turned out to be 3.95%. For the same molecule, in data set [8], the “Liver Microsome Stability (Multiple Species): Human - % Remaining after 30 min w/NADPH” value is given as 30.6%. In addition, the “24 hr Dox Inducible TNFaFLGluc 293FRT/TO: TNF/PD1” value in data set [10] is given as 19.
